Results from the supplement of paper PMC10307832.

Key:
Assay in all cases: relative viability (nuclei count vs DMSO), 5 days (fraction); higher = more cells survive
[1] = compound: CCN1C(=O)C2=CC(=C(N=C2N(C1=O)C3CC3)N)C(=O)N + N=C(N)NC(=N)NCCc1ccccc1 [Phenformin] (partner 250 µM)
Summary of the method: (§1)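 Lung cancer cell lines were seeded in 1536-well plates and dosed by pin tool the next day, with either a single drug or a fixed anchor-drug dose combined with five library-drug doses (not always all listed) spaced in √10 steps. Five days later, one step fixed the cells and stained their nuclei (final 0.05% Triton X-100, 1% formaldehyde, 1 ug/ml Hoechst), and nuclei were counted on 4× images. Relative viability is the nuclei count in treated wells divided by the count in vehicle wells, and each value is the median of duplicate plates.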

[2] = compound: CCN1C(=O)C2=CC(=C(N=C2N(C1=O)C3CC3)N)C(=O)N + C[C@@H](Oc1cc(-c2cnn(C3CCNCC3)c2)cnc1N)c1c(Cl)ccc(F)c1Cl [Crizotinib] (partner 1 µM)
Summary of the method: as §1

[3] = compound: CCN1C(=O)C2=CC(=C(N=C2N(C1=O)C3CC3)N)C(=O)N + C[C@]1(O)C[C@@H](c2nc(-c3ccc4ccc(-c5ccccc5)nc4c3)c3c(N)nccn32)C1 [Linsitinib] (partner 1 µM)
Summary of the method: as §1

[4] = compound: CCN1C(=O)C2=CC(=C(N=C2N(C1=O)C3CC3)N)C(=O)N + COc1cc2c(Oc3ccc(NC(=O)C4(C(=O)Nc5ccc(F)cc5)CC4)cc3F)ccnc2cc1OCCCN1CCOCC1 [Foretinib] (partner 0.25 µM)
Summary of the method: as §1

[5] = compound: CCN1C(=O)C2=CC(=C(N=C2N(C1=O)C3CC3)N)C(=O)N
Summary of the method: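 A plate was accepted only when its control CV was below 25% and the cells had doubled at least once. Viability is defined from nuclear counts as treated wells divided by vehicle wells, with the median taken across plates. That median covers lung cancer cell lines grown in 1536-well plates, dosed by pinning at five √10-spaced library-drug concentrations, and counted in MetaXpress from 4× Hoechst images after 5 days.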

| Cell Line | relative viability ([1]; first compound 0.253 µM) | relative viability ([1]; first compound 0.8 µM) | relative viability ([1]; first compound 2.53 µM) | relative viability ([1]; first compound 8 µM) | relative viability ([2]; first compound 0.253 µM) | relative viability ([2]; first compound 0.8 µM) | relative viability ([2]; first compound 2.53 µM) | relative viability ([2]; first compound 8 µM) | relative viability ([3]; first compound 0.253 µM) | relative viability ([3]; first compound 0.8 µM) | relative viability ([3]; first compound 2.53 µM) | relative viability ([3]; first compound 8 µM) | relative viability ([4]; first compound 0.253 µM) | relative viability ([4]; first compound 0.8 µM) | relative viability ([4]; first compound 2.53 µM) | relative viability ([4]; first compound 8 µM) | relative viability ([5]; 0.253 µM) | relative viability ([5]; 0.8 µM) | relative viability ([5]; 2.53 µM) | relative viability ([5]; 8 µM) |
| --- | --- | --- | --- | --- | --- | --- | --- | --- | --- | --- | --- | --- | --- | --- | --- | --- | --- | --- | --- | --- |
| 201T | 0.478 | 0.474 | 0.442 | 0.47 | 1.08 | 0.97 | 0.98 | 1.03 | 1 | 0.991 | 0.952 | 1.01 | 1.01 | 1.07 | 1.15 | 1.2 | 0.993 | 0.948 | 1.04 | 0.964 |
| NCI-H3122 | 0.401 | 0.393 | 0.394 | 0.358 | 0.257 | 0.273 | 0.27 | 0.277 | 1.04 | 0.96 | 0.982 | 1.06 | 1.02 | 0.991 | 0.968 | 0.916 | 1.01 | 1.01 | 0.993 | 0.956 |
| A549 |  | 0.22 | 0.155 | 0.155 | 0.712 | 0.76 | 0.732 | 0.886 |  | 0.605 | 0.505 | 0.516 | 0.898 | 1.06 | 0.809 | 1.01 | 0.985 | 1.02 | 0.962 | 0.956 |
| NCI-H838 | 0.607 | 0.589 | 0.551 | 0.545 | 0.868 | 0.817 | 0.74 | 0.717 | 1.06 | 0.895 | 0.974 | 0.99 | 1.07 | 0.989 | 0.868 | 0.926 | 0.99 | 0.965 | 0.923 | 0.96 |
| NCI-H441 | 0.762 | 0.85 | 0.78 | 0.833 | 0.706 | 0.654 | 0.773 | 0.781 | 0.49 | 0.545 | 0.697 | 0.53 | 0.925 | 0.82 | 0.956 | 0.995 | 1.1 | 1.04 | 0.965 | 1.03 |
| HOP-62 | 0.678 | 0.696 | 0.633 | 0.77 | 0.891 | 0.966 | 0.983 | 0.867 | 0.989 | 1.09 | 0.825 | 1.05 | 1 | 1.11 | 1.03 | 1.03 | 1.01 | 1.03 | 1 | 1.03 |
| SW 1573 | 0.398 | 0.472 | 0.276 | 0.364 | 0.855 | 0.744 | 0.696 | 0.772 | 0.817 | 0.729 | 0.797 | 0.781 | 0.978 | 0.762 | 0.832 | 0.933 | 0.937 | 1.07 | 0.959 | 0.978 |
| HCC-44 | 0.296 | 0.18 | 0.277 | 0.185 | 0.844 | 0.826 | 0.772 | 0.851 | 0.693 | 0.634 | 0.69 | 0.641 |  |  |  |  | 1.01 | 0.958 | 1.03 | 0.972 |
| LCLC-103H | 0.341 | 0.305 | 0.291 | 0.364 | 1.02 | 1.07 | 1.02 | 1.02 | 1.13 | 1.03 | 1.07 | 1.01 | 0.852 | 0.721 | 0.728 | 0.922 | 1.02 | 0.928 | 0.924 | 0.999 |
| NCI-H1915 | 0.367 | 0.362 | 0.376 | 0.36 | 0.895 | 0.921 | 0.851 | 0.911 | 1.09 | 1.1 | 1.08 | 1.06 | 1.05 | 1.09 | 1.11 | 1.04 | 0.988 | 1.01 | 1 | 0.922 |
| ChaGo-K-1 | 0.485 | 0.446 | 0.561 | 0.472 | 1.14 | 1.13 | 1.14 | 1.41 |  |  |  |  | 0.873 | 0.97 | 0.895 | 0.948 | 1.12 | 0.949 | 0.973 | 0.924 |
| NCI-H1703 |  |  |  |  | 0.718 | 0.727 | 0.565 | 1.04 | 0.852 | 1.12 | 0.853 | 0.6 | 0.393 | 0.432 | 0.328 | 0.372 | 0.953 | 0.871 | 0.886 | 1.07 |
| NCI-H1793 |  | 0.38 | 0.352 | 0.408 |  |  |  |  | 0.656 | 0.944 |  | 0.956 |  | 0.612 | 0.575 | 0.679 | 0.808 | 1.02 | 0.815 | 1.12 |
| NCI-H1650 | 0.47 | 0.4 | 0.367 | 0.379 | 0.982 | 0.897 | 1.11 | 1.2 |  |  |  |  | 0.913 | 1.15 | 0.955 | 1.12 | 0.937 | 0.932 | 0.901 | 0.877 |
| NCI-H1395 | 0.451 | 0.428 | 0.464 | 0.439 |  |  |  |  | 1.13 | 0.888 | 0.974 | 1.13 | 1.01 | 0.868 | 0.952 | 0.991 | 0.935 | 0.972 | 1.08 | 0.921 |
| NCI-H1792 | 0.224 | 0.237 | 0.367 | 0.352 | 1.1 | 0.902 | 1.08 | 0.878 | 0.551 | 0.624 | 0.59 | 0.559 |  |  |  |  | 0.763 | 0.786 | 1.08 | 0.832 |
| IA-LM |  |  |  |  | 0.816 | 0.662 | 0.797 | 1.14 | 0.629 | 0.618 | 0.492 | 0.553 | 1.21 | 1.03 | 0.963 | 1.44 | 0.952 | 0.75 | 0.877 | 0.825 |
